The results in this text go back to ChEMBL document CHEMBL3638723, “Isoxazolo-pyridine derivatives” (2014).

For orientation: Ki means the dissociation constant of the complex between target and ligand, obtained from inhibition or displacement.

This test deals with T1, Gamma-aminobutyric acid receptor subunit alpha-5 (Homo sapiens, UniProt P31644).
T1 sequence (P31644 whole entry): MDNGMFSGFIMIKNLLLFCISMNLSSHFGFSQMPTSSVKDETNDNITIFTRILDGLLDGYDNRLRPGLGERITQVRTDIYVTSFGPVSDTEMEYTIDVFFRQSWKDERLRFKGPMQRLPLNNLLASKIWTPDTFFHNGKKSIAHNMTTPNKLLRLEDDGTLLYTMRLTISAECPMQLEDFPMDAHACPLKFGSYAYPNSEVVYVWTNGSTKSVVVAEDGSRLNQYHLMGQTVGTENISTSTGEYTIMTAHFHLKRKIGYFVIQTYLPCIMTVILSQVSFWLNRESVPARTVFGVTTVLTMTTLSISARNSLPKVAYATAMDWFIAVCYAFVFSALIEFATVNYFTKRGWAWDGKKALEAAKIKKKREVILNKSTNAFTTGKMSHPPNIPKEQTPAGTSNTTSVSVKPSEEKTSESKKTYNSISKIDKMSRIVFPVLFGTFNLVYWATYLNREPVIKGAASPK
Description: Radioligand Binding Assay: Radioligand binding assays were carried out in a volume of […] (96-well plates) which contained […] of cell memebranes, [3H]flumazenil at a concentration of 1 nM for α1, α2, α3 subunits and 0.5 nM for α5 subunits and the test compound in the range of 10-10−3x10−6 M. Nonspecific binding was defined by 10−5 M diazepam and typically represented less than 5% of the total binding. Assays were incubated to equilibrium for 1 hour at 4 C. and harvested onto GF/C uni-filters (Packard) by filtration using a Packard harvester and washing with ice-cold wash buffer (50 mM Tris; pH 7.5). After drying, filter-retained radioactivity was detected by liquid scintillation counting.
Take `Cc1onc(-c2ccccc2)c1COc1ccc(C(=O)NC(C)C)cn1`: the Ki stood at 1.3 nM.

Take `Cc1onc(-c2ccccc2)c1COc1ccc(C(=O)N2CCn3cnnc3C2)cn1`: the Ki was 29.9 nM.

For `Cc1onc(-c2ccccc2)c1COc1ccc(C(=O)N2CC3(COC3)C2)cn1`, the Ki came out at 15.1 nM.

In the case of `Cc1onc(-c2ccc(Cl)cc2)c1COc1ccc(C(=O)N2CCOCC2)cn1`, the Ki came to 5.4 nM.

As to `Cc1onc(-c2ccccn2)c1COc1ccc(C(=O)N2CCOCC2)cn1`, the Ki stood at 14.6 nM.

For `Cc1onc(-c2ccc(Cl)cn2)c1COc1ccc(C(=O)N2CCSCC2)cn1`, the Ki stood at 0.4 nM.
